Experimental data: ChEMBL document CHEMBL2057110, “Investigation of the interaction between amodiaquine and human serum albumin by fluorescence spectroscopy and molecular modeling” (Eur J Med Chem, 2012)

Assays:
Format in all cases: ADME
Conditions in all cases: isolated protein
Albumin [1] = target: T1, Albumin (Homo sapiens, UniProt P02768); test: Apparent binding affinity to human serum albumin at pH 7.4 and 291K by spectrofluorimetry
Albumin [2] = target: T1, Albumin; test: Binding affinity to human serum albumin assessed as Stern-Volmer association constant at pH 7.4 and 301K by spectrofluorimetry
Albumin [3] = target: T1, Albumin; test: Apparent binding affinity to human serum albumin at pH 7.4 and 310K by spectrofluorimetrysis
Albumin [4] = target: T1, Albumin; test: Binding affinity to human serum albumin assessed as modified Stern-Volmer association constant at pH 7.4 and 291K by spectrofluorimetry in presence of ibuprofen
Albumin [5] = target: T1, Albumin; test: Binding affinity to human serum albumin assessed as modified Stern-Volmer association constant at pH 7.4 and 291K by spectrofluorimetry in presence of warfarin
Albumin [6] = target: T1, Albumin; test: Apparent binding affinity to human serum albumin at pH 7.4 and 301K by spectrofluorimetry
Albumin [7] = target: T1, Albumin; test: Binding affinity to human serum albumin assessed as modified Stern-Volmer association constant at pH 7.4 and 310K by spectrofluorimetry
Albumin [8] = target: T1, Albumin; test: Binding affinity to human serum albumin assessed as Stern-Volmer association constant at pH 7.4 and 291K by spectrofluorimetry
Albumin [9] = target: T1, Albumin; test: Binding affinity to human serum albumin assessed as Stern-Volmer association constant at pH 7.4 and 310K by spectrofluorimetry

T1 sequence (P02768 whole entry): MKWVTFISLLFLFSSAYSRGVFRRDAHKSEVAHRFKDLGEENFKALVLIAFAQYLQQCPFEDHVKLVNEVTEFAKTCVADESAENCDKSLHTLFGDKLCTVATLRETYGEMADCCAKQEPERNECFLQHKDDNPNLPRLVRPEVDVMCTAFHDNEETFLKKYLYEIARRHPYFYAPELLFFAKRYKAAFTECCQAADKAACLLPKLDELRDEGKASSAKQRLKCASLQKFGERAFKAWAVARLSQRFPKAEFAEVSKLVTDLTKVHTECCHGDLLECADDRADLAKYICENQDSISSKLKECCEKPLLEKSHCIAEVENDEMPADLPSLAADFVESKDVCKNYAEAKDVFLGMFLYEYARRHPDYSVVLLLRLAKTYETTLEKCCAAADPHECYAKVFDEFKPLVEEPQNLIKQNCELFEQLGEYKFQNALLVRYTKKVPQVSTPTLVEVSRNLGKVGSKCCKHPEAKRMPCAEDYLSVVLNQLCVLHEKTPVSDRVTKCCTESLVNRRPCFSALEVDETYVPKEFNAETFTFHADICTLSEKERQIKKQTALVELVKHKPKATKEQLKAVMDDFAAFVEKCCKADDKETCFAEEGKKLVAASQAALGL

Kb (Albumin [1]): 35000 M⁻¹
KSV (Albumin [2]): 56200 M⁻¹
Kb (Albumin [3]): 67300 M⁻¹
Ka (Albumin [4]): 114000 M⁻¹
Ka (Albumin [5]): 73100 M⁻¹
Kb (Albumin [6]): 48600 M⁻¹
Ka (Albumin [7]): 45900 M⁻¹
KSV (Albumin [8]): 76600 M⁻¹
KSV (Albumin [9]): 48400 M⁻¹
SMILES: CCN(CC)Cc1cc(Nc2ccnc3cc(Cl)ccc23)ccc1O.Cl
